# Data reported in patent US11883524B2, “Cosmetic compositions” (MARY KAY INC., priority 2018, dated 2024).
# Key:
# [1] = system: procollagen peptide production by human epidermal fibroblasts; assay: Increase of collagen stimulation (procollagen peptide ELISA); assay type: cell-based; settings: human adult epidermal fibroblasts, treated 3 days
# Excerpt: Increase of Collagen Stimulation: Collagen is an extracellular matrix protein critical for skin structure. Increased synthesis of collagen helps improve skin firmness and elasticity. This bioassay was used to examine the effect of tetrahexyldecyl ascorbate, and/or Phyllanthus emblica fruit extract on the production of procollagen peptide (a precursor to collagen) by human epidermal fibroblasts. The endpoint of this assay was a spectrophotometric measurement that reflects the presence of procollagen peptide and cellular viability. The assay employed the quantitative sandwich enzyme immunoassay technique whereby a monoclonal antibody specific for procollagen peptide had been pre-coated onto a microplate. Standards and samples were pipetted into the wells and any procollagen peptide present was bound by the immobilized antibody. […] Following a wash to remove any unbound antibody-enzyme reagent, a substrate solution was added to the wells and color develops in proportion to the amount of procollagen peptide bound in the initial step using a microplate reader for detection at 450 nm. The color development was stopped and the intensity of the color was measured. […] Following incubation, cell culture medium was collected and the amount of procollagen peptide secretion quantified using a sandwich enzyme linked immuno-sorbant assay (ELISA) from Takara (#MK101).
# MMP3 = biological target: T1, MMP3 (Homo sapiens, UniProt P08254); assay: Inhibition of matrix metalloproteinase enzyme activity (MMP3) assay; assay type: biochemical
# T1 construct: purchased BioMol International AK-400
# T1 sequence (P08254 100-272 limits assumed): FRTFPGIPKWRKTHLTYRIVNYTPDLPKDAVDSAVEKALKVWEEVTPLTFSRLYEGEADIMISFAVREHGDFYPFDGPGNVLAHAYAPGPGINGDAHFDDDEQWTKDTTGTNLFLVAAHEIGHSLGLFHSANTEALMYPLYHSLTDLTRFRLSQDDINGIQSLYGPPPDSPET
# Excerpt: Inhibition of Matrix Metalloproteinase Enzyme Activity (MMP3) Assay: MMPs are extracellular proteases that play a role in many normal and disease states by virtue of their broad substrate specificity. MMP3 substrates include collagens, fibronectins, and laminin; while MMP9 substrates include collagen VII, fibronectins and laminin. Using Colorimetric Drug Discovery kits from BioMol International for MMP3 (AK-400) and MMP-9 (AK-410), this assay was designed to measure protease activity of MMPs using a thiopeptide as a chromogenic substrate (Ac-PLG-[2-mercapto-4-methyl-pentanoyl]-LG-OC2H5)5,6. The MMP cleavage site peptide bond was replaced by a thioester bond in the thiopeptide. Hydrolysis of this bond by an MMP produced a sulfhydryl group, which reacted with DTNB [5,5′-dithiobis(2-nitrobenzoic acid), Ellman's reagent] to form 2-nitro-5-thiobenzoic acid, which was detected by its absorbance at 412 nm (ε=13,600 M-1 cm-1 at pH 6.0 and above 7). Tetrahexyldecyl ascorbate was assayed.
structure (smiles),measurement,setting,value
CCCCCCCCC(CCCCCC)C(=O)OC[C@H](OC(=O)C(CCCCCC)CCCCCCCC)[C@H]1OC(=O)C(OC(=O)C(CCCCCC)CCCCCCCC)=C1OC(=O)C(CCCCCC)CCCCCCCC (some centres unmarked) [Tetrahexyldecyl ascorbate],Increase of collagen,[1],+50%
same,Inhibition of MMP3 activity,MMP3,−38%
